Results taken from patent publication US9149465B2, “Isoxazolines as inhibitors of fatty acid amide hydrolase” (Infinity Pharmaceuticals, Inc., priority 2009, dated 2015).

Biological target: T1, human FAAH (Homo sapiens, UniProt O00519)
T1 construct: host or cells: COS-7 cells, transient transfection; 13,000 g membrane fraction solubilised in 1% Triton X-100
T1 sequence (O00519 1-579): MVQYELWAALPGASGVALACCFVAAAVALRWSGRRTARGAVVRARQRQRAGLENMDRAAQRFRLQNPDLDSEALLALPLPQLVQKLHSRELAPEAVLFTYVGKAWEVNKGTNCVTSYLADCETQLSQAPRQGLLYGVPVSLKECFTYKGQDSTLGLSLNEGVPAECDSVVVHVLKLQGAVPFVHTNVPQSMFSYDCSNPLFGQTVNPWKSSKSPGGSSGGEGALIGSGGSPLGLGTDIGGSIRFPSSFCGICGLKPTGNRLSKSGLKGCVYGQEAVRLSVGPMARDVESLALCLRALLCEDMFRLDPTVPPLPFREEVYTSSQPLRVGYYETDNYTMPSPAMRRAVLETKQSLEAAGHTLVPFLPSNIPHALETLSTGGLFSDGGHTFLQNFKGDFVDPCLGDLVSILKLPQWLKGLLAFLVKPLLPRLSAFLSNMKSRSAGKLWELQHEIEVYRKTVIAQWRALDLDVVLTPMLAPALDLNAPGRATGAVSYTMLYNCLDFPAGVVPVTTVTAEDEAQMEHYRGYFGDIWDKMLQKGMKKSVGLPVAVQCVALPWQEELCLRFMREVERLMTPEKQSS
Experiment: Inhibition of human FAAH (AMC arachidonoyl amide fluorescence assay)
Type: biochemical
Details: inhibitor preincubated 30 minutes at room temperature; 20 μM AMC arachidonoyl amide; 4 hours; read-out: Activity (Ki, inhibitors of human FAAH)
Method: Human FAAH Preparation: COS-7 cells were split the day before, 1:5 into 150 mm x […] cell culture dishes (Corning Inc., Cat. No. 430599). Transient transfection took place at 30-40% confluency according to FuGENE 6 Transfection Reagent (Roche, Cat. No. 11814 443 001).
Transfection Procedure: The FuGENE transfection 6 reagent (45 uL) was added to 1410 μL of media (DMEM, serum free without pen/strep) in a 15 mL conical tube and incubated at room temp for 5 minutes, followed by the addition of FAAH plasmid DNA (15 μg) (OriGene Cat. No. TC119221, Genbank Accession No. NM_001441.1, 0.67 ug/uL) and a further incubation of 15 minutes at room temperature. The resulting solution was added into one dish of 30-40% confluent COS-7 cells in a drop-wise manner. The COS-7 cell dish was subsequently incubated for 48 hours. The cells are then harvested.
Harvest procedure: Media was aspirated from the dishes and the cells rinsed with 10 mL PBS. The PBS was removed and 3 mL of PBS added to the dish. The dish was scraped to resuspend the cells, and the subsequent cell suspension collected into a 15 mL conical tube. The cells were pelleted by centrifugation at 1200 rpm for 5 minutes in a bench top centrifuge. PBS was removed and the cell pellet snap frozen in liquid nitrogen and stored at −80° C.
COS-7 cells —FAAH purification: • (1) Fractionation: Frozen cell pellets from transient transfections were thawed on ice and resuspended in 12.5 mM Hepes pH 8.0, 100 mM NaCl, 1 mM EDTA (10 mL/0.2 g cell pellet). The pellets were dounce homogenized and then sonicated to produce cell extract. The cell extract was subsequently centrifuged at 1000 g to remove cellular debris. The pellet was discarded and the supernatant centrifuged at 13,000 g for 20 minutes. The pellet contained membrane bound FAAH. The supernatant was discarded and the pellet resolubilized. • (2) Re-solubilization: The fraction of interest, (13,000 g, membrane fraction) was re-suspended in 2.3 mL re-suspension buffer (20 mM Hepes pH 7.8, 10% v/v Glycerol, 1 mM EDTA, 1% Triton X-100) and the sample incubated on ice for 1 hour and then centrifuged to remove any particulate matter. The supernatant containing solubilized human FAAH was aliquoted and snap frozen in liquid nitrogen and stored at −80° C. until use. • (3) Characterization: Protein Concentration determined by Bradford assay. • SDS gel and Western blot to confirm presence of FAAH • FAAH activity assay • Km determination-96-well assay • Linear dependence—96-well assay • Standard compound Ki determination—384-well assay
Human FAAH assay; Experimental Protocol: A 0.1 mg/mL Human FAAH solution was made up in FAAH reaction buffer, and 24 ul pipeted into a 384 well plate. To this was added 1 μL of a 3 fold serially diluted inhibitor from a DMSO stock solution. The FAAH solution and inhibitor were incubated for 30 minutes at room temperature. The FAAH reaction was initiated by the addition of 25 μL of 40 μM AMC Arachidonoyl Amide in FAAH reaction buffer, yielding a final reaction human FAAH preparation concentration of 0.05 mg/ml and AMC-Arachidonoyl substrate concentration of 20 μM, reaction volume 50 μL. The reaction was allowed to proceed for 4 hours at room temperature. The reaction was stopped by the addition of 25 μL 12 μM a-ketoheterocycle (Cayman Chemicals, catalogue #10435). The microtiter plate was read in the envision plate reader.
The raw fluorescence was plotted on the y axis and the inhibitor concentration on the x axis to give a dose response inhibition curve. The data was fitted to a single site competitive inhibition equation, fixing the Km for the human enzyme to 12 μM and 9 μM respectively.

Structure (SMILES) | Ki [nM]
FC(F)(F)Oc1ccc(C2CC(Oc3ccc(-c4ncco4)nc3)=NO2)cc1 (racemic) [I-163] | ≤ 100
CC1(c2ccc(OC(F)(F)F)cc2)CC(Oc2ccc(-c3nccs3)nc2)=NO1 (racemic) [I-164] | ≤ 100
FC(F)(F)Oc1ccc(C2CC(Oc3ccc(-c4cn[nH]c4)nc3)=NO2)cc1 (racemic) [I-165] | ≥ 1000
c1ccc(C2CC(Oc3cncnc3)=NO2)cc1 (racemic) [I-166] | 100 to 1000
CC1(c2ccc(OC(F)(F)F)cc2)CC(Oc2ccc(S(C)(=O)=O)nc2)=NO1 (racemic) [I-167] | ≤ 100
FC(F)(F)c1ccc(C2CC(Oc3cncnc3)=NO2)cc1 (racemic) [I-168] | 100 to 1000
CS(=O)(=O)c1ccc(OC2=NOC(c3ccc(C(F)(F)F)cc3)C2)cn1 (racemic) [I-169] | ≤ 100
O=C(O)c1ccc(OC2=NOC(c3ccc(C(F)(F)F)cc3)C2)cn1 (racemic) [I-170] | ≤ 100
CC1(c2ccc(OC(F)(F)F)cc2)CC(n2cnc(C(=O)O)n2)=NO1 (racemic) [I-171] | ≥ 1000
CC1(c2ccc(OC(F)(F)F)cc2)CC(Oc2cc3ccccn3n2)=NO1 (racemic) [I-172] | ≥ 1000
FC(F)(F)Oc1ccc(C2CC(Oc3ccc(-c4ccc[nH]4)nc3)=NO2)cc1 (racemic) [I-173] | ≤ 100
FC(F)(F)Oc1ccc(C2CC(Oc3cccc(-c4nnn[nH]4)c3)=NO2)cc1 (racemic) [I-174] | 100 to 1000
FC(F)(F)Oc1ccc(C2CC(Oc3ccc(-c4nnn[nH]4)cc3)=NO2)cc1 (racemic) [I-175] | 100 to 1000
O=C(O)c1cccc(OC2=NOC(c3ccc(OC(F)(F)F)cc3)C2)c1 (racemic) [I-176] | ≥ 1000
O=C(O)c1ccc(OC2=NOC(c3ccc(OC(F)(F)F)cc3)C2)cc1 (racemic) [I-177] | 100 to 1000
N#Cc1ccc(OC2=NOC(c3ccc(OC(F)(F)F)cc3)C2)cn1 (racemic) [I-178] | 100 to 1000
CCCCc1ccc([C@H]2CC(Oc3cncnc3)=NO2)cc1 (racemic) [I-180] | ≤ 100
CCCCc1ccc(C2CC(Oc3ccc(S(C)(=O)=O)nc3)=NO2)cc1 (racemic) [I-181] | ≤ 100
CCS(=O)(=O)c1ccc(OC2=NOC(c3ccc(OC(F)(F)F)cc3)C2)cn1 (racemic) [I-182] | ≤ 100
O=S(=O)(c1ccc(OC2=NOC(c3ccc(OC(F)(F)F)cc3)C2)cn1)C1CCCC1 (racemic) [I-183] | 100 to 1000
CC(C)CS(=O)(=O)c1ccc(OC2=NOC(c3ccc(OC(F)(F)F)cc3)C2)cn1 (racemic) [I-184] | 100 to 1000
CC1(c2ccc(OC(F)(F)F)cc2)CC(Oc2ccc(-c3ncco3)nc2)=NO1 (racemic) [I-185] | ≤ 100
FC(F)(F)Oc1ccc(C2CC(Oc3ccc(-c4ccco4)nc3)=NO2)cc1 (racemic) [I-186] | ≤ 100
Cc1ccc(-c2ccc(OC3=NOC(c4ccc(OC(F)(F)F)cc4)C3)cn2)o1 (racemic) [I-187] | ≤ 100
O=C(O)c1ccc(-c2ccc(OC3=NOC(c4ccc(OC(F)(F)F)cc4)C3)cn2)o1 (racemic) [I-188] | ≥ 1000
Cn1nccc1-c1ccc(OC2=NOC(c3ccc(OC(F)(F)F)cc3)C2)cn1 (racemic) [I-189] | ≤ 100
Cc1cc(-c2ccc(OC3=NOC(c4ccc(OC(F)(F)F)cc4)C3)cn2)n(C)n1 (racemic) [I-190] | ≤ 100
Cn1nc(C(F)(F)F)cc1-c1ccc(OC2=NOC(c3ccc(OC(F)(F)F)cc3)C2)cn1 (racemic) [I-191] | ≥ 1000

Second part, the compound after the results:

Ki [nM] | Structure (SMILES)
≤ 100 | FC(F)(F)Oc1ccc(C2CC(Oc3ccc(-c4ccn[nH]4)nc3)=NO2)cc1 (racemic) [I-192]
100 to 1000 | O=C(O)c1ccc(-c2ccc(OC3=NOC(c4ccc(OC(F)(F)F)cc4)C3)cn2)s1 (racemic) [I-193]
≤ 100 | FC(F)(F)Oc1ccc(C2CC(Oc3ccc(-c4cnoc4)nc3)=NO2)cc1 (racemic) [I-194]
≤ 100 | FC(F)(F)Oc1ccc(C2CC(Oc3ccc(-c4nnn[nH]4)nc3)=NO2)cc1 (racemic) [I-195]
≤ 100 | CCS(=O)(=O)c1ccc(OC2=NOC(C)(c3ccc(OC(F)(F)F)cc3)C2)cn1 (racemic) [I-196]
≤ 100 | CS(=O)(=O)c1ccc(OC2=NOC(c3ccc(Oc4ccccc4)cc3)C2)cn1 (racemic) [I-197]
≤ 100 | CC1(c2ccc(OC(F)(F)F)cc2)CC(Oc2ccc(-n3cccn3)nc2)=NO1 (racemic) [I-198]
≥ 1000 | Cc1noc(-c2cccc(OC3=NOC(c4ccc(OC(F)(F)F)cc4)C3)c2)n1 (racemic) [I-199]
100 to 1000 | Cn1nnc(-c2ccc(OC3=NOC(c4ccc(OC(F)(F)F)cc4)C3)cc2)n1 (racemic) [I-200]
≤ 100 | FC(F)(F)Oc1ccc(C2CC(Oc3ccc(-c4nnco4)cc3)=NO2)cc1 (racemic) [I-201]
100 to 1000 | O=C(c1ccc([C@H]2CC(Br)=NO2)cc1)N1CCOCC1 (racemic) [I-202]
≤ 100 | CN(C)C(=O)c1ccc([C@H]2CC(Br)=NO2)cc1 (racemic) [I-203]
100 to 1000 | CNC(=O)c1ccc([C@H]2CC(Br)=NO2)cc1 (racemic) [I-204]
≤ 100 | O=S(=O)(c1ccc([C@H]2CC(Br)=NO2)cc1)N1CCOCC1 (racemic) [I-205]
≤ 100 | CN(C)S(=O)(=O)c1ccc([C@H]2CC(Br)=NO2)cc1 (racemic) [I-206]
≤ 100 | CNS(=O)(=O)c1ccc([C@H]2CC(Br)=NO2)cc1 (racemic) [I-207]
≤ 100 | O=C(c1ccc([C@H]2CC(Br)=NO2)cc1)N1CCCCC1 (racemic) [I-208]
≤ 100 | O=C(c1ccc([C@H]2CC(Br)=NO2)cc1)N1CCCC1 (racemic) [I-209]
≤ 100 | O=S(=O)(c1ccc([C@H]2CC(Br)=NO2)cc1)N1CCCCC1 (racemic) [I-210]
≤ 100 | O=S(=O)(c1ccc([C@H]2CC(Br)=NO2)cc1)N1CCCC1 (racemic) [I-211]
100 to 1000 | CN(C)C(=O)c1ccc(C2CC(Oc3ccc(S(C)(=O)=O)nc3)=NO2)cc1 (racemic) [I-212]
≤ 100 | CN(C)S(=O)(=O)c1ccc([C@H]2CC(Oc3ccc(S(C)(=O)=O)nc3)=NO2)cc1 (racemic) [I-213]
≤ 100 | CS(=O)(=O)c1ccc(OC2=NO[C@@H](c3ccc(C(=O)NCc4ccccc4)cc3)C2)cn1 (racemic) [I-214]
100 to 1000 | O=C(NCc1ccccc1)c1ccc([C@H]2CC(Oc3ccc(C(=O)O)nc3)=NO2)cc1 (racemic) [I-215]
100 to 1000 | FC(F)(F)c1ccc(C2CC(Oc3ccc(Br)nc3)=NO2)cc1 (racemic) [I-216]
≤ 100 | FC(F)(F)c1ccc(C2CC(Oc3cccc(-c4nnco4)c3)=NO2)cc1 (racemic) [I-217]
